Reference: patent publication US7390782B2, “Methods and products related to metabolic interactions in disease” (University of Vermont and State Agricultural College, priority 1998, dated 2008)
Entries after “also recorded” stand apart in the source; their conditions may differ.

Key:
[1] = tested on: L1210; assay: Fas expression by flow cytometry (FITC anti-Fas over isotype); assay type: cell-based; conditions: for Fas expression: in the presence of staurosporine or ADRIAMYCIN
Method: (§1) 3. Fas Expression Increases as a Function of Glucose: We investigated the effect of increasing concentrations of glucoseon cell surface Fas expression. L1210 and L1210/DDP cells were cultured in glucose free RPMI media or in media supplemented with insulin and glucose for 16 hours. Intra- and extracellular Fas expression was determined by labeling the cells with FITC-conjugated anti-Fas antibodies (Pharmingen), or FITC-conjugated isotype control, then subtracting the fluorescence intensity of the isotype staining from Fas staining for each treatment group.
(§2) L1210, upper panels, and L1210/DDP cells, lower panels, were cultured in glucose free RPMI media, filled circles, or in media supplemented with insulin and glucose, squares, for 16 hours. Intra- and extracellular Fas expression was determined by labeling the cells with FITC-conjugated anti-Fas antibodies, or FITC-conjugated isotype control, then subtracting the fluorescence intensity of the isotype staining from Fas staining for each treatment group (FIG. 2). Results are presented as geometric mean fluorescence over background.
(§3) 4. […] We treated L1210 or L1210 DDP cells with the staurosporine, which inhibits protein kinase C and increases mitochondrial membrane potential, or an anti-cancer agent to which both cells are sensitive, ADRIAMYCIN™. Fas expression was increased or induced on both L1210 and L1210 DDP, respectively, in the presence of staurosporine or ADRIAMYCIN™ (FIG. 3). The L1210 DDP changed morphologically and began to divide rapidly, changes which appeared to correspond with a reversion back to the phenotype of the L1210 cells.
(§4) FIG. 23 is a graph depicting Sodium Acetate as a mitochondrial modifying agent. L1210 or L1210DDP cells were cultured in the presence of graded concentrations of sodium acetate in the medium. Cells were stained with Jo2.2, a fluorescein conjugated anti-Fas antibody, or an isotype control. Cell surface staining was measured flow cytometrically. The Percentage of mean fluorescence intensity over the isotype control was plotted.

[2] = tested on: L1210/DDP; assay: as above; assay type: cell-based; conditions: for Fas expression: L1210 DDP, in the presence of staurosporine or ADRIAMYCIN
Method: as §1, §2, §3, §4

[3] = tested on: resting B-cells from (NZB×NZW)F1 and (NZB×SWR)F1 mice; assay: Apoptosis (DNA fragments) in resting B-cells from autoimmune strains; assay type: cell-based
Method: We stimulated both resting and activated B-cells from (NZB×NZW)F1 and (NZB×SWR)F1 mice with antibodies to class II molecules. Young animals, prior to the development of lupus-like autoantibody and renal disease, were used in these studies. […] Agarose gel electrophoresis of DNA fragments from high density resting B-cells (1.079<r<1.085) was carried out as described in FIG. 2. Normalized areas produced by scanning densitometry on the gels shown above for normal; (NZB×SWR)F1; or (NZB×NZW)F1, animals. […] For normal animals, the mean and standard error of four experiments are shown. For the (NZB×NZW)F1 animals, representative data from one of two experiments is shown and for (NZB×SWR)F1 animals, a single experiment is shown. Because experiments were performed on different days it is impossible to compare background levels of apoptosis between strains; however, it should be noted that there is significant variability in background levels of apoptosis, with those for the (NZB×NZW)F1 animals apparently tending to be higher than for the other strains.

[4] = tested on: resting B-cells from (NZB×NZW)F1 and (NZB×SWR)F1 mice; assay: cAMP in resting B-cells from autoimmune strains; assay type: cell-based
Method: Following the protocols as described in Newell, M K, et al. (Proc Natl Acad Sci, USA, 1993, 90:10459-10463) for resting B lymphocytes from normal mice, we isolated resting B-cells from spleens of (NZB×NZW)F1 and (NZB×SWR)F1 mice by Percoll gradient separation and treated the cells with antibodies to class II molecules, FIG. 12. Experiments utilized mice younger than 3 months of age. […] Resting (1.079<r<1.085) B-cells from normal; […], animals were treated for 10 min at 37° C. with stimuli indicated. Levels of cAMP were determined as described in FIG. 1. Means (and standard errors) from three experiments are shown for normal animals. The means from two experiments are shown for each of the F1 hybrid animals.

[5] = tested on: splenic lymphocytes from C57BL/6, C57BL6.lpr and C57BL.gld; assay: Viability of splenic lymphocytes cultured with methotrexate; assay type: cell-based, mice; conditions: Fas deficient lymphocytes; 5×10^-8 M methotrexate, 18 or 32 hours
Method: 8. Fas Deficient Lymphocytes are also drug resistant to methotrexate: We isolated splenic lymphocytes from aged-matched wild type C57BL/6 mice and C57BL6.lpr and C57BL.gld. Splenocytes from C57BL/6 lpr or gld animals were isolated, red cells depleted, and single cell suspensions prepared. Cells were cultured in the absence or presence of 5×10^−8 M methotrexate for 18 or 32 hours. Cells were harvested and viability was determined by flow cytometric analysis and confirmed with trypan blue exclusion.

[6] = tested on: L1210; assay: Methotrexate-induced death, flow cytometry and DNA fragment analysis; assay type: cell-based; conditions: 10^-8 M methotrexate, 24 hours
Method: (§5) Additionally, L1210 and L1210/DDP cells were treated with 10−8 M methotrexate for 24 hours. […] The forward scatter low populations took up ethidium bromide differentially. The L1210 cells took up a moderate amount. […] This latter phenotype—loss in forward scatter and membrane permeability with no “DNA laddering”—is the hall mark of oncosis.

[7] = tested on: L1210/DDP; assay: as above; assay type: cell-based; conditions: 10^-8 M methotrexate, 24 hours
Method: as §5

[8] = tested on: B16 melanoma cells; conditions: increasing concentrations
Method: B16 cells were cultured in the in the presence of different concentrations of sodium acetate and Fas expression was measured.

[9] = tested on: B16 melanoma cells; conditions: increasing concentrations; remark: listed apart in the source
Method: FIG. 18 depicts the rates of glucose utilization and oxidation in B16 melanoma cells. Again cells were cultured in the presence of varying concentration of sodium acetate.

[10] = tested on: L1210; conditions: FasL bearing cells over mock-transfectants
From the text: (§6) Cells cultured with acetate were loaded with 51 Cr and plated onto FasL bearing or mock transfected fibroblast to determine sensitivity to Fas-induced cell death. Results are reported as percent chromium release from cells in the presence of FasL bearing cells over mock-transfectants.

[11] = tested on: L1210DDP; conditions: FasL bearing cells over mock-transfectants
From the text: as §6

[12] = tested on: TrkA cells; assay: Cytofluorometric analysis of Fas, B7.1, B7.2 cell surface expression; assay type: cell-based, Rat; conditions: Trk cells, 50 ng/ml
Method: (§7) Cell Culture: Rat pheochromocytoma cell lines, including PC12, Trk and v-Crk cells were a kind gift from Dr. Raymond Birge. They were maintained in complete RPMI 1640 (GIBCO) supplemented with 7% heat inactivated fetal calf serum and 3% heat inactivated horse serum at 37° C. in a humidified incubator with 5% CO2. The PC12 transfectants were generated as described previously (Glassman et al., 1997, Hempstead et al., 1994). Cells were plated in 6 well culture plates at a concentration ranging from 2-8×10^6 cells/well, according to the cell type's growth kinetics, and 5 ml complete medium. NGF-7S from mouse submaxillary glands (Sigma Chemical Co.) or EGF, kindly provided by Dr. Raymond Birge, was added at a concentration of 50 ng/ml culture medium and the cells were incubated for 24 or 48 hours.
(§8) Cytofluorometric Analysis: Cells were harvested after a 10 minute incubation period on ice in order to diminish their adherence to the plastic culture flask. They were spun at 1210 rpm, for 7 minutes, resuspended in medium and counted after trypan blue staining. Equal numbers of cells were placed in 12×75 mm flow tubes (range: 0.1-1×10^6 cells/tube), washed in PBS and 5% FBS and stained at 4° C. The following stains were used: a) fluorescein isothiocyanate (FITC) hamster IgG isotype standard, b) FITC anti-mouse Fas, c) FITC anti-mouse CD80 (B7.1), d) phycoerythrin (PE) mouse IgG2b K isotype standard and e) PE anti-mouse CD86 (B7.2). All antibodies were obtained from Pharmingen.
(§9) After incubation on ice for 20 minutes, cells were washed, resuspended in PBS and 5% FCS and analyzed by flow cytometry (Becton Dickinson). Histogram plots were derived from dot plots gated on the live cell population according to the forward versus side scatter ratio (Cell Quest Program). The absolute Fas, B7.1 and B7.2 values presented on the graphs were obtained by subtracting the […]. Values were considered subjectively positive (+) if the difference was statistically significant (p<0.001) according to the applied Kilmogorov-Smirnov statistical analysis.

[13] = tested on: PC12 cells; assay: as above; assay type: cell-based, Rat; conditions: 50 ng/ml
Method: as §7, §8, §9

[14] = tested on: v-Crk cells; assay: as above; assay type: cell-based, Rat
Method: as §7, §8, §9

Molecule: COc1cccc2c1C(=O)c1c(O)c3c(c(O)c1C2=O)C[C@@](O)(C(=O)CO)C[C@@H]3O[C@H]1C[C@H](N)[C@H](O)[C@H](C)O1 [ADRIAMYCIN™]
- Fas expression [1]: increased
- Fas expression [2]: induced

Molecule: CC(C)NCC(O)c1ccc(O)c(O)c1 (stereo not shown) [isoproterenol]
- apoptosis ([3]; (NZB×NZW)F1 B-cells): minimal evidence of apoptosis
- apoptosis ([3]; B-cells from (NZB×SWR)F1 mice): intermediate level
- intracellular cAMP response [4]: normal

Molecule: CN(Cc1cnc2nc(N)nc(N)c2n1)c1ccc(C(=O)N[C@@H](CCC(=O)O)C(=O)O)cc1 [methotrexate]
- susceptibility to methotrexate-induced apoptosis [5]: decreased susceptibility
- DNA fragments (laddering) [6]: produced a ladder of nucleosome sized fragments indicative of apoptosis
- DNA fragments (laddering) [7]: did not

Molecule: CC(=O)[O-].[Na+] [sodium acetate]
- levels of cell surface Fas ([8]; non-permeabilized B16 cells): increased
- levels of intracellular Fas ([8]; permeabilized B16 cells): declined
- glucose oxidation [9]: decreased
- glucose utilization [9]: decreased
- cell surface Fas expression ([1]; graded concentrations of sodium acetate in the medium): increases cell surface Fas expression
- cell surface Fas expression ([2]; L1210DDP, graded concentrations of sodium acetate in the medium): increases cell surface Fas expression
- susceptibility to Fas-dependent cell death (percent chromium release) [10]: results in susceptibility to Fas-dependent cell death
- susceptibility to Fas-dependent cell death (percent chromium release) [11]: results in susceptibility to Fas-dependent cell death

Molecule: CN[C@@H]1C[C@H]2O[C@@](C)([C@@H]1OC)n1c3ccccc3c3c4c(c5c6ccccc6n2c5c31)C(=O)NC4 [staurosporine]
- Fas expression [1]: increased
- Fas expression and susceptibility to drug-induced apoptosis ([2]; L1210 DDP cells treated with staurosporin): restores Fas expression and susceptibility to drug-induced apoptosis
- Fas expression [2]: induced

Molecule: EGF: EGF, kindly provided by Dr. Raymond Birge
- B7.1 cell surface expression ([12]; stimulation 24 hours): lowered
- Fas cell surface expression ([12]; stimulation 24 hours): downregulates Fas expression
- B7.1 cell surface expression ([12]; stimulation 48 hours): reestablished
- B7.2 cell surface expression ([12]; stimulation 48 hours): most significant
- Fas cell surface expression ([12]; stimulation 48 hours): totally abrogates Fas expression
- B7.1 cell surface expression ([13]; stimulation 24 hours): significantly lowers
- Fas cell surface expression ([13]; stimulation 24 hours): downregulates Fas expression
- B7.1 cell surface expression ([13]; stimulation 48 hours): reestablishes the basal values
- B7.2 cell surface expression ([13]; stimulation 48 hours): up-regulates B7.2 expression
- Fas cell surface expression ([13]; stimulation 48 hours): totally abrogates Fas expression
- B7.1 cell surface expression ([14]; 50 ng/ml, 24 and 48 hours of culture): significantly increases B7.1 expression
- Fas cell surface expression ([14]; 50 ng/ml, stimulation 24 hours): significantly up-regulates Fas expression; also recorded: increases three-fold
- B7.2 cell surface expression ([14]; 50 ng/ml, stimulation 48 hours): significant induction
- Fas cell surface expression ([14]; 50 ng/ml, stimulation 48 hours): down-regulated and abrogated
- B7.2 cell surface expression ([14]; after withdrawal): again undetectable
